Assays:
recombinant human DHODH = target: T1, recombinant human DHODH (Homo sapiens, UniProt Q02127); experiment: Enzyme reaction inhibition test (DHODH enzyme assay, DCIP quenching); assay type: biochemical; details: DCIP absorbance 600 nm, 50 minutes, read-out: Enzyme reaction inhibitory effect (IC50)
T1 construct: DHODH, 31-395 aa, Human, His tag, E. coli, ATGP1615; His tag; purchased ATGen Co. Ltd. ATGP1615; host or cells: E. coli
Method: The DHODH enzyme assay was carried out with reference to “Benjamin Bader, Wolfgang Knecht, Markus Fries, and Monika Loffler. Expression, Purification, and Characterization of Histidine-Tagged Rat and Human Flavoenzyme Dihydroorotate Dehydrogenase. Protein Expression and Purification, 1998, 13, 414-422.”
The DHODH activity was evaluated using an enzyme assay system that is coupled with an assay in which a blue coloring agent 2,6-dichlorophenol indophenol (DCIP, available from MP Biomedicals, LLC, MP150118) is quenched. Purified recombinant human DHODH (DHODH, 31-395 aa, Human, His tag, E. coli, ATGP1615) was purchased from ATGen Co. Ltd. The enzyme assay was carried out in a 384-well plate using a buffer solution containing 100 mmol/L Hepes (available from Dojindo Laboratories, 342-01375), 400 mmol/L NaCl (available from FUJIFILM Wako Pure Chemical Corporation, 191-01665), 10% Glycerol (available from FUJIFILM Wako Pure Chemical Corporation, 075-00616), 0.05% Triton X-100 (available from Sigma-Aldrich Co., LLC, T8787-100ML), 0.2 mmol/L Ubiquinone-10 (available from FUJIFILM Wako Pure Chemical Corporation, 216-00761), 0.1 mmol/L DHO (L-dihydroorotic acid, available from Sigma-Aldrich Co., LLC, D7128), 0.5% DMSO (dimethylsulfoxide, available from FUJIFILM Wako Pure Chemical Corporation, 047-29353), 0.175 μg/mL DHODH, and 0.12 mmol/L DCIP and having a pH adjusted to 8.0 by adding 5 mol/L potassium hydroxide (available from FUJIFILM Wako Pure Chemical Corporation, 168-21815). A test compound with a predetermined concentration was added using Biomek NX (available from Beckman Coulter Inc.), and the enzymatic reaction was started by adding the substrate. The enzyme activity was assessed by measuring the decrease in DCIP absorbance (600 nm) for 50 minutes using an EnVision plate-reading spectrophotometer (available from PerkinElmer, Inc.).
The enzyme reaction inhibition rate at each test compound concentration was determined, and the 50% enzyme reaction inhibition concentration [IC50 (nmol/L)] was calculated using XLfit. Enzyme reaction inhibition rate (%)=(amount of luminescence in test compound-added well)/(amount of luminescence in DMSO-added well)×100
The abbreviations in the table have the following meanings. • A: IC50 value<10 nmol/L • B: 10 nmol/L≤IC50 value<100 nmol/L • C: 100 nmol/L≤IC50 value

[1] = tested on: human myeloid leukemia cell line HL60; experiment: Cell growth test (Cell Titer Glo); assay type: cell-based; details: HL-60, 72 h, HL60 cells, 3 days, read-out: Cell growth inhibitory effect (GI50)
Method: The cell growth test was carried out using the human myeloid leukemia cell line HL60 (available from ATCC, CRL-240). As a culture medium of HL60 cells, RPMI 1640 (available from FUJIFILM Wako Pure Chemical Corporation, 189-02025) supplemented with 10% fetal bovine serum (available from Thermo Fisher Scientific, Inc., 10437-028), and 1% penicillin-streptomycin (10,000 U/mL, available from Thermo Fisher Scientific, Inc., 15140-122) was used. HL60 cells were seeded on a 384-well plate (available from Corning Inc., 4588) at a cell density of 1×10^3 cells/20 μL/well. After culturing overnight, 5 μL of the test compound having a predetermined concentration was added, and 3 days later, 25 μL of Cell Titer Glo (registered trademark) Luminescent Cell Viability Assay (available from Promega Corporation, G7573) was added, and then the amount of luminescence was measured using an EnVision plate reader (available from PerkinElmer, Inc.). Since the amount of luminescence is proportional to the intracellular concentration of adenosine triphosphate (ATP), the amount of luminescence was used as an indicator of the number of viable cells. The growth inhibitory concentration for each test compound concentration was calculated by the following expression.
The growth inhibition rate at each test compound concentration was determined, and the 50% growth inhibitory concentration [GI50 (nmol/L)] was calculated using XLfit. Growth inhibition rate (%)=(amount of luminescence in test compound-added well)/(amount of luminescence in DMSO-added well)×100
The abbreviations in the table have the following meanings. • A: GI50 value<100 nmol/L • B: 100 nmol/L≤GI50 value<1,000 nmol/L • C: 1,000 nmol/L≤GI50 value

T1 sequence (Q02127 31-395): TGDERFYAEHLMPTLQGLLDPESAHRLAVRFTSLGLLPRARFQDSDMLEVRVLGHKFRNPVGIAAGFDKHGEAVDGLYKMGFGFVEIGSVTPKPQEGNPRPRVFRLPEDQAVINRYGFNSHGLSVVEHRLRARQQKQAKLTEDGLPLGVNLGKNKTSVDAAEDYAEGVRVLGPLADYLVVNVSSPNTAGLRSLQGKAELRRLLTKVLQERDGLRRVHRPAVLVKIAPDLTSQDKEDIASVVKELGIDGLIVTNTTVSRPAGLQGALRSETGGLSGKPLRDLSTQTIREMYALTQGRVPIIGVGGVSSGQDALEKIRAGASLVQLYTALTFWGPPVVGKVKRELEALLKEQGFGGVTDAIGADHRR

SMILES	IC50 (recombinant human DHODH) [nM]	GI50 [1] [nM]
COC(=O)c1nc(C2CC2)cnc1Nc1cccc(C2=CCOCC2)c1OCC(F)(F)F [Example 1, methyl 6-cyclopropyl-3-((3-(3,6-dihydro-2H-pyran-4-yl)-2-(2,2,2-trifluoroethoxy)phenyl)amino)pyrazine-2-carboxylate]	≥ 100	100 to 1000
O=C(O)c1nc(C2CC2)cnc1Nc1cc(F)cc(C2=CCOCC2)c1OCC(F)(F)F [Example 5, 6-cyclopropyl-3-((3-(3,6-dihydro-2H-pyran-4-yl)-5-fluoro-2-(2,2,2-trifluoroethoxy)phenyl)amino) pyrazine-2-carboxylic acid]	< 10	< 100
O=C(O)c1nc(C2CC2)cnc1Nc1cc(F)cc(C2CCOCC2)c1OCC(F)(F)F [Example 6, 6-cyclopropyl-3-((5-fluoro-3-(tetrahydro-2H-pyran-4-yl)-2-(2,2,2-trifluoroethoxy)phenyl)amino) pyrazine-2-carboxylic acid]	< 10	< 100
O=C(O)c1nc(C2CC2)cnc1Nc1cccc(C2=CCOCC2)c1OC(F)F [Example 14, 6-cyclopropyl-3-((2-(difluoromethoxy)-3-(3,6-dihydro-2H-pyran-4-yl)phenyl)amino)pyrazine-2-carboxylic acid]	< 10	100 to 1000
O=C(O)c1nc(C2CC2)cnc1Nc1cc(F)cc(C2=CCOCC2)c1OC(F)F [Example 19-1]	< 10	100 to 1000
Cc1c(Nc2ncc(C3CC3)nc2C(=O)O)cc(F)cc1C1=CCOCC1 [Example 19-4]	10 to 100	100 to 1000
CCOc1c(Nc2ncc(C3CC3)nc2C(=O)O)cc(F)cc1C1=CCOCC1 [Example 19-5]	10 to 100	100 to 1000
O=C(O)c1nc(C2CC2)cnc1Nc1cccc(C2=CCOCC2)c1OCC(F)(F)C(F)(F)F [Example 19-7]	< 10	< 100
O=C(O)c1nc(C2CC2)cnc1Nc1cccc(C2=CCOCC2)c1OCCC(F)(F)F [Example 19-8]	< 10	< 100
O=C(O)c1nc(C2CC2)cnc1Nc1cccc(C2CCOCC2)c1C1CC1 [Example 19-12]	< 10	100 to 1000
CCCCc1c(Nc2ncc(C3CC3)nc2C(=O)O)cccc1C1CCOCC1 [Example 19-17]	< 10	100 to 1000
O=C(O)c1nc(C2CC2)cnc1Nc1cccc(C2CCOCC2)c1CCF [Example 19-19]	10 to 100	≥ 1000
CCOc1ccc(Nc2ncc(C3CC3)nc2C(=O)O)c(OCC)c1C1=CCOCC1 [Example 19-23]	10 to 100	100 to 1000
CCOc1c(Nc2ncc(C3CC3)nc2C(=O)O)ccc(F)c1C1=CCOCC1 [Example 19-25]	< 10	100 to 1000
O=C(O)c1nc(C2CC2)cnc1Nc1ccc(F)c(C2=CCOCC2)c1F [Example 19-26]	10 to 100	≥ 1000
O=C(O)c1nc(C2CC2)cnc1Nc1cccc(C2=CCOCC2)c1CCCF [Example 19-27]	10 to 100	100 to 1000
CCc1cnc(Nc2cccc(C3=CCOCC3)c2OCC(F)(F)F)c(C(=O)O)n1 [Example 19-32]	10 to 100	100 to 1000
CCOC(=O)c1nc(C2CC2)cnc1Nc1cccc(C2=CCOCC2)c1OCC(F)(F)F [Example 20, ethyl 6-cyclopropyl-3-((3-(3,6-dihydro-2H-pyran-4-yl)-2-(2,2,2-trifluoroethoxy)phenyl)amino)pyrazine-2-carboxylate]	≥ 100	100 to 1000

Second part, the molecule after the results:

IC50 (recombinant human DHODH) [nM]	GI50 [1] [nM]	SMILES
< 10	< 100	O=C(O)c1nc(C2CC2)cnc1Nc1cc(F)cc(C2CCOCC2)c1OC(F)F [Example 11, 6-cyclopropyl-3-((2-(difluoromethoxy)-5-fluoro-3-(tetrahydro-2H-pyran-4-yl)phenyl)amino)pyrazine-2-carboxylic acid]
< 10	< 100	CCc1c(Nc2ncc(C3CC3)nc2C(=O)O)cccc1C1CCOCC1 [Example 12, 6-cyclopropyl-3-((2-ethyl-3-(tetrahydro-2H-pyran-4-yl)phenyl)amino)pyrazine-2-carboxylic acid]
10 to 100	100 to 1000	CCOc1c(C2=CCOCC2)cc(F)c(F)c1Nc1ncc(C2CC2)nc1C(=O)O [Example 19-2]
< 10	100 to 1000	O=C(O)c1nc(C2CC2)cnc1Nc1cccc(C2=CCOCC2)c1OCC(F)F [Example 19-3]
10 to 100	100 to 1000	CC(Oc1c(Nc2ncc(C3CC3)nc2C(=O)O)cccc1C1=CCOCC1)C(F)(F)F (stereo not shown) [Example 19-6]
10 to 100	100 to 1000	O=C(O)c1nc(C2CC2)cnc1Nc1cccc(C2=CCOCC2)c1COCC(F)(F)F [Example 19-10]
< 10	100 to 1000	CC(C)c1c(Nc2ncc(C3CC3)nc2C(=O)O)cccc1C1CCOCC1 [Example 19-13]
< 10	< 100	CC1=C(c2cccc(Nc3ncc(C4CC4)nc3C(=O)O)c2OCC(F)(F)F)CCOC1 [Example 19-14]
< 10	< 100	O=C(O)c1nc(C2CC2)cnc1Nc1cccc(C2CCOCC2)c1CCC(F)(F)F [Example 19-15]
10 to 100	100 to 1000	CCCc1c(Nc2ncc(C3CC3)nc2C(=O)O)cccc1C1=CCOCC1 [Example 19-16]
10 to 100	100 to 1000	O=C(O)c1nc(C2CC2)cnc1Nc1cccc(C2CCOCC2)c1CC(F)(F)F [Example 19-18]
10 to 100	≥ 1000	COc1c(Nc2ncc(C3CC3)nc2C(=O)O)cccc1C1=CCOCC1 [Example 19-20]
10 to 100	100 to 1000	CCOc1c(Nc2ncc(C3CC3)nc2C(=O)O)cccc1C1=CCOCC1 [Example 19-21]
10 to 100	≥ 1000	O=C(O)c1nc(C2CC2)cnc1Nc1cccc(C2=CCOCC2)c1F [Example 19-22]
10 to 100	100 to 1000	CCOc1ccc(Nc2ncc(C3CC3)nc2C(=O)O)cc1C1=CCOCC1 [Example 19-24]
< 10	< 100	O=C(O)c1nc(C2CC2)cnc1Nc1cccc(C2CCOCC2)c1CCC(F)F [Example 19-28]
10 to 100	< 100	O=C(O)c1nc(C2CC2)cnc1Nc1cccc(C2CCOCC2)c1CC(F)F [Example 19-29]
10 to 100	100 to 1000	CC(C)c1cnc(Nc2cccc(C3=CCOCC3)c2OCC(F)(F)F)c(C(=O)O)n1 [Example 19-31]
10 to 100	≥ 1000	Cc1cnc(Nc2cccc(C3=CCOCC3)c2OCC(F)(F)F)c(C(=O)O)n1 [Example 19-33]
≥ 100	≥ 1000	CC(C)OC(=O)c1nc(C2CC2)cnc1Nc1cccc(C2=CCOCC2)c1OCC(F)(F)F [Example 21, isopropyl 6-cyclopropyl-3-((3-(3,6-dihydro-2H-pyran-4-yl)-2-(2,2,2-trifluoroethoxy)phenyl)amino)pyrazine-2-carboxylate]

Source: patent US12421217B2, “Pyrazine derivative or salt thereof, and use of same” (FUJIFILM Corporation, priority 2019, dated 2025)
